{"source": "patent US12723063B2", "about": "“GIPR-agonist compounds” (Eli Lilly and Company, priority 2019, dated 2026)", "key": {"[1]": {"target": "T1, human glucagon receptor (GcgR) (Homo sapiens, UniProt P47871)", "T1 construct": "expressed in transfected cells; host or cells: HEK293", "T1 sequence (P47871 26-477)": "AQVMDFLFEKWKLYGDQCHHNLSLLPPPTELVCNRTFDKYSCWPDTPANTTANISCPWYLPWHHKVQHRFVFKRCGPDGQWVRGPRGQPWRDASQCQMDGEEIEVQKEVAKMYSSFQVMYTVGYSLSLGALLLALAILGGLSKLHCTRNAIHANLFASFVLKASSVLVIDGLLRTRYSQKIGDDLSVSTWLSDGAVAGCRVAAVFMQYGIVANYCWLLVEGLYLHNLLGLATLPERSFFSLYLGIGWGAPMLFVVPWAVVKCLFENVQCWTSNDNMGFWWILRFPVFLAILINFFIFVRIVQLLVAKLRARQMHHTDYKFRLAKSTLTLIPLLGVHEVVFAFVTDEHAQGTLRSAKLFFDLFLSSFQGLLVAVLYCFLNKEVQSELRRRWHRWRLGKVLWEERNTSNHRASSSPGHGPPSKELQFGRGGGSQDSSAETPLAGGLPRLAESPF", "assay": "cAMP functional assay (HTRF) in HEK293 cells in presence of 0.1% casein", "format": "cell-based", "conditions": "HEK293 cells expressing human GcgR, geometric mean, read-out: hGcgR cAMP Rel EC50 nM (SEM, n)"}, "[2]": {"target": "T2, human glucose-dependent insulinotropic peptide receptor (GIPR) (Homo sapiens, UniProt P48546)", "T2 construct": "expressed in transfected cells; host or cells: HEK293", "T2 sequence (P48546 22-466)": "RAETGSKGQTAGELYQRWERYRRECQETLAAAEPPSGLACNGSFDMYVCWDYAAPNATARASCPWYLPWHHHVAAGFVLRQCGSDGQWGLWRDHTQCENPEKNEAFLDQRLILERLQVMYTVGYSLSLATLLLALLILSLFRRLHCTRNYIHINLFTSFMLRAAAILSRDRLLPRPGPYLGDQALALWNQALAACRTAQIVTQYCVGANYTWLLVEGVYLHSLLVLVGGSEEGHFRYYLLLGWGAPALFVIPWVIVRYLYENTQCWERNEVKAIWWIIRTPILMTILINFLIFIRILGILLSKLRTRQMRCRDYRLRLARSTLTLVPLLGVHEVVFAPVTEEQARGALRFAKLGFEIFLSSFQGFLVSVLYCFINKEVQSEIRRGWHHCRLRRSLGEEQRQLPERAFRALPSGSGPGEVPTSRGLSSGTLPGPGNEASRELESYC", "assay": "cAMP functional assay (HTRF) in HEK293 cells in presence of 0.1% casein", "format": "cell-based", "conditions": "HEK293 cells expressing human GIPR, geometric mean, read-out: hGIPR cAMP Rel EC50 nM (SEM, n)"}}, "note": "*1 amine or outer side, *2 acyl side, *3 side chain or, on linkers, in order; H or OH if unused. Where a SMILES comes first, the peptide text is derived from it. Side-chain parts run from the residue outwards. [ ]: non-standard residue; d: D form. The star is where a group is joined. C20 diacid = O=C(O)CCCCCCCCCCCCCCCCCCC(=O)*; γGlu = O=C(O)[C@H](CCC(=O)[*:2])N[*:1]; AEEA = NCCOCCOCC(=O)O; Aib = CC(C)(N)C(=O)O"}
{"compound": "CC[C@H](C)[C@H](NC(=O)[C@H](CO)NC(=O)[C@H](Cc1ccc(O)cc1)NC(=O)[C@H](CC(=O)O)NC(=O)[C@H](CO)NC(=O)[C@@H](NC(=O)[C@H](Cc1ccccc1)NC(=O)[C@@H](NC(=O)CNC(=O)[C@H](CCC(=O)O)NC(=O)C(C)(C)NC(=O)[C@@H](N)Cc1ccc(O)cc1)[C@@H](C)O)[C@@H](C)CC)C(=O)N[C@@H](CC(C)C)C(=O)N[C@@H](CC(C)C)C(=O)N[C@@H](CC(=O)O)C(=O)N[C@@H](CCCCN)C(=O)N[C@@H](CCCCNC(=O)COCCOCCNC(=O)COCCOCCNC(=O)CC[C@H](NC(=O)CCCCCCCCCCCCCCCCCCC(=O)O)C(=O)O)C(=O)N[C@@H](C)C(=O)N[C@@H](CCC(N)=O)C(=O)NC(C)(C)C(=O)N[C@@H](CC(=O)O)C(=O)N[C@@H](Cc1ccccc1)C(=O)N[C@H](C(=O)N[C@@H](CC(N)=O)C(=O)N[C@@H](Cc1c[nH]c2ccccc12)C(=O)N[C@@H](CC(C)C)C(=O)N[C@@H](CC(C)C)C(=O)N[C@@H](C)C(=O)N[C@@H](CCC(N)=O)C(=O)NCC(=O)N1CCC[C@H]1C(=O)N[C@@H](CO)C(=O)N[C@@H](CO)C(=O)NCC(=O)N[C@@H](C)C(=O)N1CCC[C@H]1C(=O)N1CCC[C@H]1C(=O)N1CCC[C@H]1C(=O)N[C@@H](CO)C(N)=O)C(C)C", "note": "[Example 8] (H-Y[Aib]EGTFISDYSILLDKK([AEEA-AEEA-γGlu-C20 diacid])AQ[Aib]DFVNWLLAQGPSSGAPPPS-NH2)", "values": [{"measurement": "EC50", "setting": "[1]", "value": 295, "unit": "nM"}, {"measurement": "EC50", "setting": "[2]", "value": 0.0268, "unit": "nM"}]}
{"compound": "CC[C@H](C)[C@H](NC(=O)[C@H](CO)NC(=O)[C@H](Cc1ccc(O)cc1)NC(=O)[C@H](CC(=O)O)NC(=O)[C@H](CO)NC(=O)[C@@H](NC(=O)[C@H](Cc1ccccc1)NC(=O)[C@@H](NC(=O)CNC(=O)[C@H](CCC(=O)O)NC(=O)[C@@H](C)NC(=O)[C@@H](N)Cc1ccc(O)cc1)[C@@H](C)O)[C@@H](C)CC)C(=O)N[C@@H](CC(C)C)C(=O)N[C@@H](CC(C)C)C(=O)N[C@@H](CC(=O)O)C(=O)N[C@@H](CCCCN)C(=O)N[C@@H](CCCCNC(=O)COCCOCCNC(=O)COCCOCCNC(=O)CC[C@H](NC(=O)CCCCCCCCCCCCCCCCCCC(=O)O)C(=O)O)C(=O)N[C@@H](Cc1c[nH]cn1)C(=O)N[C@@H](CCC(N)=O)C(=O)NC(C)(C)C(=O)N[C@@H](CC(=O)O)C(=O)N[C@@H](Cc1ccccc1)C(=O)N[C@H](C(=O)N[C@@H](CC(N)=O)C(=O)N[C@@H](Cc1c[nH]c2ccccc12)C(=O)N[C@@H](CC(C)C)C(=O)N[C@@H](CC(C)C)C(=O)N[C@@H](C)C(=O)N[C@@H](CCC(N)=O)C(=O)NCC(=O)N1CCC[C@H]1C(=O)N[C@@H](CO)C(=O)N[C@@H](CO)C(=O)NCC(=O)N[C@@H](C)C(=O)N1CCC[C@H]1C(=O)N1CCC[C@H]1C(=O)N1CCC[C@H]1C(=O)N[C@@H](CO)C(N)=O)C(C)C", "note": "[Example 9] (H-Y[dA]EGTFISDYSILLDKK([AEEA-AEEA-γGlu-C20 diacid])HQ[Aib]DFVNWLLAQGPSSGAPPPS-NH2)", "values": [{"measurement": "EC50", "setting": "[1]", "value": "> 5000", "unit": "nM"}, {"measurement": "EC50", "setting": "[2]", "value": 0.165, "unit": "nM"}]}
{"compound": "CC[C@H](C)[C@H](NC(=O)[C@H](CO)NC(=O)[C@H](Cc1ccc(O)cc1)NC(=O)[C@H](CC(=O)O)NC(=O)[C@H](CO)NC(=O)[C@@H](NC(=O)[C@H](Cc1ccccc1)NC(=O)[C@@H](NC(=O)CNC(=O)[C@H](CCC(=O)O)NC(=O)[C@@H](C)NC(=O)[C@@H](N)Cc1ccc(O)cc1)[C@@H](C)O)[C@@H](C)CC)C(=O)N[C@@H](CC(C)C)C(=O)N[C@@H](CC(C)C)C(=O)N[C@@H](CC(=O)O)C(=O)N[C@@H](CCCCN)C(=O)N[C@@H](CCCCNC(=O)COCCOCCNC(=O)COCCOCCNC(=O)CC[C@H](NC(=O)CCCCCCCCCCCCCCCCCCC(=O)O)C(=O)O)C(=O)N[C@@H](Cc1c[nH]cn1)C(=O)N[C@@H](CCC(N)=O)C(=O)N[C@@H](CCC(N)=O)C(=O)N[C@@H](CC(=O)O)C(=O)N[C@@H](Cc1ccccc1)C(=O)N[C@H](C(=O)N[C@@H](CC(N)=O)C(=O)N[C@@H](Cc1c[nH]c2ccccc12)C(=O)N[C@@H](CC(C)C)C(=O)N[C@@H](CC(C)C)C(=O)N[C@@H](C)C(=O)NCC(=O)NCC(=O)N1CCC[C@H]1C(=O)N[C@@H](CO)C(=O)N[C@@H](CO)C(=O)NCC(=O)N[C@@H](C)C(=O)N1CCC[C@H]1C(=O)N1CCC[C@H]1C(=O)N1CCC[C@H]1C(=O)N[C@@H](CO)C(N)=O)C(C)C", "note": "[Example 10] (H-Y[dA]EGTFISDYSILLDKK([AEEA-AEEA-γGlu-C20 diacid])HQQDFVNWLLAGGPSSGAPPPS-NH2)", "values": [{"measurement": "EC50", "setting": "[1]", "value": "> 5000", "unit": "nM"}, {"measurement": "EC50", "setting": "[2]", "value": 0.611, "unit": "nM"}]}
{"compound": "CC[C@H](C)[C@H](NC(=O)[C@H](CO)NC(=O)[C@H](Cc1ccc(O)cc1)NC(=O)[C@H](CC(=O)O)NC(=O)[C@H](CO)NC(=O)[C@@H](NC(=O)[C@H](Cc1ccccc1)NC(=O)[C@@H](NC(=O)CNC(=O)[C@H](CCC(=O)O)NC(=O)[C@@H](C)NC(=O)[C@@H](N)Cc1ccc(O)cc1)[C@@H](C)O)[C@@H](C)CC)C(=O)N[C@@H](CC(C)C)C(=O)N[C@@H](CC(C)C)C(=O)N[C@@H](CC(=O)O)C(=O)N[C@@H](CCCCN)C(=O)N[C@@H](CCCCNC(=O)COCCOCCNC(=O)COCCOCCNC(=O)CC[C@H](NC(=O)CCCCCCCCCCCCCCCCCCC(=O)O)C(=O)O)C(=O)N[C@@H](C)C(=O)N[C@@H](CCC(N)=O)C(=O)N[C@@H](CCC(N)=O)C(=O)N[C@@H](CC(=O)O)C(=O)N[C@@H](Cc1ccccc1)C(=O)N[C@H](C(=O)N[C@@H](CC(N)=O)C(=O)N[C@@H](Cc1c[nH]c2ccccc12)C(=O)N[C@@H](CC(C)C)C(=O)N[C@@H](CC(C)C)C(=O)N[C@@H](C)C(=O)N[C@@H](CCC(N)=O)C(=O)NCC(=O)N1CCC[C@H]1C(=O)N[C@@H](CO)C(=O)N[C@@H](CO)C(=O)NCC(=O)N[C@@H](C)C(=O)N1CCC[C@H]1C(=O)N1CCC[C@H]1C(=O)N1CCC[C@H]1C(=O)N[C@@H](CO)C(N)=O)C(C)C", "note": "[Example 11] (H-Y[dA]EGTFISDYSILLDKK([AEEA-AEEA-γGlu-C20 diacid])AQQDFVNWLLAQGPSSGAPPPS-NH2)", "values": [{"measurement": "EC50", "setting": "[1]", "value": 445, "unit": "nM"}, {"measurement": "EC50", "setting": "[2]", "value": 0.0738, "unit": "nM"}]}
{"compound": "CC[C@H](C)[C@H](NC(=O)[C@H](CO)NC(=O)[C@H](Cc1ccc(O)cc1)NC(=O)[C@H](CC(=O)O)NC(=O)[C@H](CO)NC(=O)[C@@H](NC(=O)[C@H](Cc1ccccc1)NC(=O)[C@@H](NC(=O)CNC(=O)[C@H](CCC(=O)O)NC(=O)[C@@H](C)NC(=O)[C@@H](N)Cc1ccc(O)cc1)[C@@H](C)O)[C@@H](C)CC)C(=O)N[C@@H](CC(C)C)C(=O)N[C@@H](CC(C)C)C(=O)N[C@@H](CC(=O)O)C(=O)N[C@@H](CCCCN)C(=O)N[C@@H](CCCCNC(=O)COCCOCCNC(=O)COCCOCCNC(=O)CC[C@H](NC(=O)CCCCCCCCCCCCCCCCCCC(=O)O)C(=O)O)C(=O)N[C@@H](C)C(=O)N[C@@H](CCC(N)=O)C(=O)N[C@@H](CCC(N)=O)C(=O)N[C@@H](CC(=O)O)C(=O)N[C@@H](Cc1ccccc1)C(=O)N[C@H](C(=O)N[C@@H](CC(N)=O)C(=O)N[C@@H](Cc1c[nH]c2ccccc12)C(=O)N[C@@H](CC(C)C)C(=O)N[C@@H](CC(C)C)C(=O)N[C@@H](C)C(=O)NCC(=O)NCC(=O)N1CCC[C@H]1C(=O)N[C@@H](CO)C(=O)N[C@@H](CO)C(=O)NCC(=O)N[C@@H](C)C(=O)N1CCC[C@H]1C(=O)N1CCC[C@H]1C(=O)N1CCC[C@H]1C(=O)N[C@@H](CO)C(N)=O)C(C)C", "note": "[Example 12] (H-Y[dA]EGTFISDYSILLDKK([AEEA-AEEA-γGlu-C20 diacid])AQQDFVNWLLAGGPSSGAPPPS-NH2)", "values": [{"measurement": "EC50", "setting": "[1]", "value": "> 5000", "unit": "nM"}, {"measurement": "EC50", "setting": "[2]", "value": 0.0911, "unit": "nM"}]}
